The target of one test is T1, Bcl-2 (GST-Bcl-2) (Homo sapiens, UniProt P10415).
T1 construct: made in house
Nature of the test: TR-FRET binding assay, competition with F-Bak for the Bcl-2 binding site. The note with it: Bcl-2, for comparison (selectivity). The method, then:
For each assay plate, a probe/antibody and protein/antibody/probe mixture were included as a negative and a positive control, respectively. Fluorescence was measured on the Envision (Perkin Elmer) using a 340/35 nm excitation filter and 520/525 (F-Bak) and 495/510 nm (Tb-labeled anti-his antibody) emission filters. Dissociation constants (Ki) were determined using Wang's equation (see, Wang, Z. X. An exact mathematical expression for describing competitive binding of two different ligands to a protein molecule. FEBS Lett. 1995 360:111-114). The TR-FRET assay can be performed in the presence of varying concentrations of human serum (HS) or fetal bovine serum (FBS). For comparison, the measurement of the competition of compounds of the invention for other Bcl-2 family protein binding sites (e.g., Bcl-2, Mcl-1) using the TR-FRET binding assay was accomplish by substituting GST-Bcl-xL in the TR-FRET assay with other GST-labeled protein, e.g., GST-Bcl-2, GST-Mcl-1, prepared in-house.
On the technique in general: Time-resolved FRET reads energy transfer from a long-lived donor to a nearby acceptor.

In test [1] the target is T2, Bcl-xL (GST-Bcl-xL) (Homo sapiens, UniProt Q07817). Nature of the test: TR-FRET binding assay, competition with F-Bak for the Bcl-xL binding site. The note with it: values listed in the order of Table 1, read-out: TR-FRET assay results (Ki), Bcl-xL.
The test system of a further test is platelets. Nature of the test: Cell viability assay for platelets (platelet rich plasma, CellTiter-Glo). The class given is cell-based. The note with it: approximately 4 hours at 37 C. The method, then: Platelet rich plasma (PRP) was incubated with a compound of the invention for approximately 4 hours at 37° C. After incubation, platelets were equilibrated to room temperature for 20 minutes and then and equal volume of CELL TITER-GLO™ reagent (Promega Corporation) was added. Samples were mixed for two minutes and then allowed to equilibrate for an additional 10 minutes at room temperature. The luminescence generated from the samples was quantitated using a LJL Analyst plate reader. Data analysis was performed using GraphPad Prism 4.0.
(Cellular ATP, detected with luciferase, serves as a proxy for viable cell number.)

The target of test [2] is T2, Bcl-xL (GST-Bcl-xL). The test can be described thus: AlphaScreen Bcl-xL binding assay, competition with biotinylated Bim peptide. Also on record: made in house. The note with it: values listed in the order of Table 1; read-out: Alphascreen results (IC50) against the Bcl-xL protein. In short, it runs like this: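 Acceptor beads with GST-Bcl-xL were combined with donor beads carrying biotinylated Bim peptide after each bead mix was preincubated 30 min at room temperature. Compounds in DMSO, 2-fold serially diluted, were incubated 30 min at room temperature before donor addition, with duplicate plates. Percent inhibition was taken against no-protein and DMSO controls, and IC50 was calculated.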
Background: In Alpha technology, singlet oxygen from a donor bead excites a nearby acceptor bead.

The values that follow come from patent publication US8232273B2, “Heterocyclic compounds and methods of use” (Genentech, Inc., priority 2008, dated 2012).

Each structure is given as a SMILES string.

T2 sequence (Q07817 whole entry, species assumed): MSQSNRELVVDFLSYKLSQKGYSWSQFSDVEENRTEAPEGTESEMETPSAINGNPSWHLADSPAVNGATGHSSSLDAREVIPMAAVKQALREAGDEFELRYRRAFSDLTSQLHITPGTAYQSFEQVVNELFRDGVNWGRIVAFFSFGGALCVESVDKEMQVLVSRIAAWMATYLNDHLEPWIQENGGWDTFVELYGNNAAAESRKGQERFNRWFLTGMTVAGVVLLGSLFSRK
T1 sequence (P10415 whole entry, species assumed): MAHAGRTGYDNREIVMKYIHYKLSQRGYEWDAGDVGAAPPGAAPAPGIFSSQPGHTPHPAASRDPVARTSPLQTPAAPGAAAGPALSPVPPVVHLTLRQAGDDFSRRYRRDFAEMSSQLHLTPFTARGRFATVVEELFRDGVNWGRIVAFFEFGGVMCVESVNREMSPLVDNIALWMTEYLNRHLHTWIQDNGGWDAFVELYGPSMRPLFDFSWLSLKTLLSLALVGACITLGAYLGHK

For orientation: Ki means the dissociation constant of the complex between target and ligand, obtained from inhibition or displacement. Turning to `CC(C)n1cnc2c(-c3ccc(OCCCc4sc(N5CCc6cccc(C(=O)Nc7nc8ccccc8s7)c6C5)nc4C(=O)O)cc3)ncnc21` [Example 52, 2-(8-(benzo[d]thiazol-2-ylcarbamoyl)-3,4-dihydroisoquinolin-2(1H)-yl)-5-(3-(4-(9-isopropyl-9H-purin-6-yl)phenoxy)propyl)thiazole-4-carboxylic acid], the Ki came out at 130 nM at Bcl-2 (GST-Bcl-2) and 0.05 nM on Bcl-xL (GST-Bcl-xL) [1].

Usually EC50 stands for the concentration at which the effect is half-maximal. High values mean weaker potency, low ones greater potency. In the case of `CN(C)CCCNc1ncnc2c1cnn2-c1ccc(OCCCc2sc(N3CCc4cccc(C(=O)Nc5nc6ccccc6s5)c4C3)nc2C(=O)O)cc1` [Example 54, 2-(8-(benzo[d]thiazol-2-ylcarbamoyl)-3,4-dihydroisoquinolin-2(1H)-yl)-5-(3-(4-(4-(3-(dimethylamino)propylamino)-1H-pyrazolo[3,4-d]pyrimidin-1-yl)phenoxy)propyl)thiazole-4-carboxylic acid], in the test with platelets, it took 132 nM to reach a half-maximal effect (EC50). Besides, the Ki on Bcl-xL (GST-Bcl-xL) [1] stood at 0.05 nM.

Usually IC50 stands for the concentration that inhibits the measured activity by half. For the molecule `O=C(Nc1nc2ccccc2s1)c1cccc2c1CN(c1nc(C(=O)O)c(CCNS(=O)(=O)c3cccc([N+](=O)[O-])c3)s1)CC2` [Example 70, 2-[8-(Benzothiazol-2-ylcarbamoyl)-3,4-dihydro-1H-isoquinolin-2-yl]-5-[2-(3-nitro-benzenesulfonylamino)-ethyl]thiazole-4-carboxylic acid], the IC50 at Bcl-xL (GST-Bcl-xL) [2] turned out to be 260 nM. The results for the Ki on Bcl-2 (GST-Bcl-2) and at Bcl-xL (GST-Bcl-xL) [1] were 500 nM and 40 nM, respectively.

With `CN(C)CCOc1ccc(OCCCc2sc(N3CCc4cccc(C(=O)Nc5nc6ccccc6s5)c4C3)nc2C(=O)O)cc1` [Example 75, 2-[8-(Benzothiazol-2-ylcarbamoyl)-3,4-dihydro-1H-isoquinolin-2-yl]-5-{3-[4-(2-dimethylamino-ethoxy)-phenoxy]-propyl}-thiazole-4-carboxylic acid], the IC50 at Bcl-xL (GST-Bcl-xL) [2] was found to be 0.1 nM. The same molecule displayed a concentration for a half-maximal effect (EC50) with platelets of 9 nM. The inhibition constant (Ki) on Bcl-xL (GST-Bcl-xL) [1] worked out at 0.05 nM.

As to `O=C(Nc1nc2ccccc2s1)c1cccc2c1CN(c1nc(C(=O)O)c(CCOc3ccccc3)s1)CC2` [Example 76, 2-(8-(benzo[d]thiazol-2-ylcarbamoyl)-3,4-dihydroisoquinolin-2(1H)-yl)-5-(2-phenoxyethyl)thiazole-4-carboxylic acid], the Ki on Bcl-2 (GST-Bcl-2) amounted to 350 nM.

For the molecule `O=C(Nc1nc2ccccc2s1)c1cccc2c1CN(c1nc(C(=O)O)c(CCCOc3ccc(-c4csc5c(NCCCN6CCCC6)ncnc45)cc3)s1)CC2` [Example 78, 2-[8-(Benzothiazol-2-ylcarbamoyl)-3,4-dihydro-1H-isoquinolin-2-yl]-5-(3-{4-[4-(3-pyrrolidin-1-yl-propylamino)-thieno[3,2-d]pyrimidin-7-yl]-phenoxy}-propyl)-thiazole-4-carboxylic acid], the EC50 with platelets turned out to be 3 nM. Besides, the Ki on Bcl-xL (GST-Bcl-xL) [1] was 0.05 nM.

`CN1CCN(c2ncnc3c(-c4ccc(OCCCc5sc(N6CCc7cccc(C(=O)Nc8nc9ccccc9s8)c7C6)nc5C(=O)O)cc4)csc23)CC1` [Example 79, 2-[8-(Benzothiazol-2-ylcarbamoyl)-3,4-dihydro-1H-isoquinolin-2-yl]-5-(3-{4-[4-(4-methyl-piperazin-1-yl)-thieno[3,2-d]pyrimidin-7]-phenoxy}-propyl)-thiazole-4-carboxylic acid] showed an EC50 with platelets of 3 nM. On Bcl-xL (GST-Bcl-xL) [1], the Ki came out at 0.1 nM.

For `N#Cc1nccnc1-c1ccc(OCCCc2sc(N3CCc4cccc(C(=O)Nc5nc6ccccc6s5)c4C3)nc2C(=O)O)cc1` [Example 86, 2-[8-(Benzothiazol-2-ylcarbamoyl)-3,4-dihydro-1H-isoquinolin-2-yl]-5-{3-[4-(3-cyano-pyrazin-2-yl)-phenoxy]-propyl}-thiazole-4-carboxylic acid], the midpoint of the response in the test on platelets, the EC50, lay at 10 nM. Besides, on Bcl-xL (GST-Bcl-xL) [1], the Ki came to 0.07 nM.

`CN1CCN(c2cccc(OCCCc3sc(N4CCc5cccc(C(=O)Nc6nc7ccccc7s6)c5C4)nc3C(=O)O)c2)CC1` [Example 87, 2-[8-(Benzothiazol-2-ylcarbamoyl)-3,4-dihydro-1H-isoquinolin-2-yl]-5-{3-[3-(4-methyl-piperazin-1-yl)-phenoxy]-propyl}-thiazole-4-carboxylic acid] gave an EC50 in the test on platelets of 3 nM. Further, the inhibition constant Ki on Bcl-xL (GST-Bcl-xL) [1] amounted to 0.05 nM.

`CN(C)CCOc1ccc(-c2ccc(OCCCc3sc(N4CCc5cccc(C(=O)Nc6nc7ccccc7s6)c5C4)nc3C(=O)O)cc2)nc1` [Example 90, 2-[8-(Benzothiazol-2-ylcarbamoyl)-3,4-dihydro-1H-isoquinolin-2-yl]-5-(3-{4-[5-(2-dimethylamino-ethoxy)-pyridin-2-yl]-phenoxy}-propyl)-thiazole-4-carboxylic acid] showed an EC50 with platelets of 3 nM. For the same molecule, on Bcl-xL (GST-Bcl-xL) [1], the Ki was found to be 0.05 nM.

Consider `CN(C)CCOc1ccc(-c2ccc(OCCCc3ccc(N4CCc5cccc(C(=O)Nc6nc7ccccc7s6)c5C4)nc3C(=O)O)cc2)nc1` [Example 95, 6-[8-(Benzothiazol-2-ylcarbamoyl)-3,4-dihydro-1H-isoquinolin-2-yl]-3-(3-{4-[5-(2-dimethylamino-ethoxy)-pyridin-2-yl]-phenoxy}-propyl)-pyridine-2-carboxylic acid], for which the EC50 with platelets is 3 nM. Moreover, the Ki at Bcl-xL (GST-Bcl-xL) [1] was found to be 0.05 nM.

In the test on platelets, `O=C(Nc1nc2ccccc2s1)c1cccc2c1CN(c1ccc(CCCOc3ccc(-c4ncccn4)cc3)c(C(=O)O)n1)CC2` [Example 96, 6-[8-(Benzothiazol-2-ylcarbamoyl)-3,4-dihydro-1H-isoquinolin-2-yl]-3-[3-(4-pyrimidin-2-yl-phenoxy)-propyl]-pyridine-2-carboxylic acid] had a concentration for a half-maximal effect (EC50) of 354 nM. Further, at Bcl-xL (GST-Bcl-xL) [1], the Ki was 0.1 nM.
